From patent US9283213B2, “Dihydropyridin-2(1H)-one compounds as S-nitrosoglutathione reductase inhibitors and neurokinin-3 receptor antagonists” (N30 Pharmaceuticals, Inc., priority 2010, dated 2016)

Key:
[1] = biological target: T1, GSNOR (Homo sapiens, UniProt P11766); experiment: GSNOR assay (inhibition of GSNOR activity in vitro); type: biochemical; conditions: 0.240 mM GSNO, 0.300 mM NADH, pH 7.4, 25° C.; read-out: GSNOR inhibitor IC50
T1 construct: made in house; host or cells: E. coli
Procedure: Various compounds were tested in vitro for their ability to inhibit GSNOR activity.
Pre-cultures were grown from stabs of a GSNOR glycerol stock in 2XYT media containing 100 ug/ml ampicillin after an overnight incubation at 37° C. Cells were then added to fresh 2XYT (4 L) containing ampicillin and grown to an OD (A600) of 0.6-0.9 at 37° C. before induction. GSNOR expression was induced with 0.1% arabinose in an overnight incubation at 20° C.
E. coli cell paste was lysed by nitrogen cavitation and the clarified lysate purified by Ni affinity chromatography on an AKTA FPLC (Amersham Pharmacia). The column was eluted in 20 mM Tris pH 8.0/250 mM NaCl with a 0-500 mM imidazole gradient. […] GSNOR was recovered in the flowthrough fraction and for crystallography is further purified by Q-Sepharose and Heparin flowthrough chromatography in 20 mM Tris pH 8.0, 1 mM DTT, 10 uM ZnSO4.
GSNO and Enzyme/NADH Solutions are made up fresh each day. The Solutions are filtered and allowed to warm to room temperature. GSNO Solution: 100 mM NaPO4 (pH 7.4), 0.480 mM GSNO. 396 μL of GSNO Solution is added to a cuvette followed by 8 μL of test compound in DMSO (or DMSO only for full reaction control) and mixed with the pipette tip. Compounds to be tested are made up at a stock concentration of 10 mM in 100% DMSO. 2 fold serial dilutions are done in 100% DMSO. 8 μL of each dilution are added to an assay so that the final concentration of DMSO in the assay is 1%. The concentrations of compounds tested range from 100 to 0.003 μM. Enzyme/NADH Solution: 100 mM NaPO4 (pH 7.4), 0.600 mM NADH, 1.0 μg/mL GSNO Reductase. 396 μL of the Enzyme/NADH Solution is added to the cuvette to start the reaction. The cuvette is placed in the Cary 3E UV/Visible Spectrophotometer and the change in 340 nm absorbance/min at 25° C. is recorded for 3 minutes. The assays are done in triplicate for each compound concentration. IC50's for each compound are calculated using the standard curve analysis in the Enzyme Kinetics Module of SigmaPlot.
Final assay conditions: 100 mM NaPO4, pH 7.4, 0.240 mM GSNO, 0.300 mM NADH, 0.5 μg/mL GSNO Reductase and 1% DMSO. Final volume: 800 μL/cuvette.

[2] = biological target: T2, human NK3 receptor (Homo sapiens, UniProt P29371); experiment: Human NK3 receptor binding assay at 10 μM; conditions: 10 μM test compound; 0.4 nM [3H]SR142801; CHO cell membranes; read-out: percent inhibition at 10 μM, human NK3 receptor binding
T2 construct: expressed in transfected cells; host or cells: CHO cells
T2 sequence (P29371 1-465): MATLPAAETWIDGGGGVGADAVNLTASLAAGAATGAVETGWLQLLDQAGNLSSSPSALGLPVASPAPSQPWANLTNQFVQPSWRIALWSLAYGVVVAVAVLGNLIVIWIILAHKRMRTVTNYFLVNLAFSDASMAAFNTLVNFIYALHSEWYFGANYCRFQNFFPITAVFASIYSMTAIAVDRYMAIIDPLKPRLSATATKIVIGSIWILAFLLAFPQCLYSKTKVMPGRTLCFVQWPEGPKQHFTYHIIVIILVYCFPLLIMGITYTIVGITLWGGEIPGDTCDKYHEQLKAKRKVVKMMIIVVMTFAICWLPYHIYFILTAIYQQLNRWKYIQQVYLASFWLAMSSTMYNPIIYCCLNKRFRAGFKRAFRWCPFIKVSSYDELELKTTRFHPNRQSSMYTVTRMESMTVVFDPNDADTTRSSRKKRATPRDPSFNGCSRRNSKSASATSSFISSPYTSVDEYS
Procedure: Evaluation of the affinity of test compounds for the human neurokinin NK3 receptor from transfected CHO cells was performed using an antagonist radioligand binding assay. Antagonist activity was evaluated at a concentration of 10 μM for a representative subset of test compounds, and the results were expressed as the percent inhibition at that concentration.
Receptor binding assays were performed using crude membranes prepared from CHO cells expressing human NK3 receptor. Osanetant (SR142801), a non-peptide NK3 antagonist, was used as a ligand, and SB222200 was used as a positive control reference compound. The assay was performed with cell membrane homogenates (24 μg protein) incubated for 120 min at 22° C. with 0.4 nM [^3H]SR142801 in the absence or presence of the test compound in a buffer containing 20 mM Hepes/NaOH (pH 7.4), 120 mM NaCl, 1 mM MnCl2, 0.01% bacitracin, 0.002% aprotinin and 0.1% BSA. Following incubation, the samples were filtered rapidly under vacuum through glass fiber filters (GF/B, Packard) that had been presoaked with 0.3% PEI. The filters were rinsed several times with ice-cold 50 mM Tris/HCl using a 96-sample cell harvester (Unifilter, Packard), dried, and counted for radioactivity in a scintillation counter (Topcount, Packard) using a scintillation cocktail (Microscint 0, Packard). Each test compound was evaluated at a single concentration of 10 μM. The standard reference compound, SB222200, was tested in each experiment. Nonspecific binding was determined in the presence of 10 μM SB222200. The specific ligand binding to the receptor is defined as the difference between the total binding and the nonspecific binding. The results are expressed as a percent of control specific binding ((measured specific binding/control specific binding)×100) obtained in the presence of the test compounds.

[3] = biological target: T2, human NK3 receptor; experiment: Human NK3 receptor binding assay determined by IC50; conditions: 0.4 nM [3H]SR142801; CHO cell membranes
Procedure: Evaluation of the affinity of compounds for the human NK3 receptor from transfected CHO cells was performed using an antagonist radioligand binding assay. The antagonist activity of a representative subset of test compounds was evaluated over a range of concentrations, and the results were expressed as IC50 values.
Receptor binding assays were performed using crude membranes prepared from CHO cells expressing human NK3 receptor. Osanetant (SR142801), a non-peptide NK3 antagonist, was used as a ligand, and SB222200 was used as a positive control reference compound. […] The filters were rinsed several times with ice-cold 50 mM Tris/HCl using a 96-sample cell harvester (Unifilter, Packard), dried, and counted for radioactivity in a scintillation counter (Topcount, Packard) using a scintillation cocktail (Microscint 0, Packard). […] Nonspecific binding was determined in the presence of 10 μM SB222200. […] The IC50 values (concentration causing a half-maximal inhibition of control specific binding) and Hill coefficients (nH) were determined by non-linear regression analysis of the competition curves generated with mean replicate values using Hill equation curve fitting (Y=D+[(A−D)/(1+(C/C50)^nH)], where Y=specific binding, D=minimum specific binding, A=maximum specific binding, C=compound concentration, C50=IC50, and nH=slope factor). […]

[4] = biological target: T2, human NK3 receptor; experiment: Human NK3 receptor binding assay at 1 uM; conditions: 1 μM test compound; 0.4 nM [3H]SR142801; CHO cell membranes; read-out: percent inhibition at 1 μM, human NK3 receptor binding
Procedure: Evaluation of the affinity of compounds for the human NK3 receptor from transfected CHO cells was performed using an antagonist radioligand binding assay. Antagonist activity was evaluated at a concentration of 1 μM for a representative subset of test compounds, and the results were expressed as the percent inhibition at that concentration.
Receptor binding assays were performed using crude membranes prepared from CHO cells expressing human NK3 receptor. Osanetant (SR142801), a non-peptide NK3 antagonist, was used as a ligand, and SB222200 was used as a positive control reference compound. […] The filters were rinsed several times with ice-cold 50 mM Tris/HCl using a 96-sample cell harvester (Unifilter, Packard), dried, and counted for radioactivity in a scintillation counter (Topcount, Packard) using a scintillation cocktail (Microscint 0, Packard). Each test compound was evaluated at a single concentration of 1 μM. […] Nonspecific binding was determined in the presence of 10 μM SB222200. […] The results are expressed as a percent of control specific binding ((measured specific binding/control specific binding)×100) obtained in the presence of the test compounds.

T1 sequence (P11766 whole entry): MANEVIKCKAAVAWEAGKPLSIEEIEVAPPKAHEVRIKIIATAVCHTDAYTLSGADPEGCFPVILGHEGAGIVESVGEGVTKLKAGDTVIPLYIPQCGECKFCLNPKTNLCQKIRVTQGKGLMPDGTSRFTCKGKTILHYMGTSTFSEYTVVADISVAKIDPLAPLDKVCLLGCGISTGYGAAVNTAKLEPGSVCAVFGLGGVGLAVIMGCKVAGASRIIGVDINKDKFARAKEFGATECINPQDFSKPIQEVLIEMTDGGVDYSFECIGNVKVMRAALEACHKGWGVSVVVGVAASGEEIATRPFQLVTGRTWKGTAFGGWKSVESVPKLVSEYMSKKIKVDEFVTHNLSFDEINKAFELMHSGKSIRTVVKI

SMILES | IC50 [1] [nM] | inhibition at 10 µM [2] [%] | IC50 [3] [nM] | inhibition at 1 µM [4] [%]
CCOc1cc(C2CC(=O)NC(c3ccccc3)=C2c2ccccc2)cc([N+](=O)[O-])c1O (stereo not shown) [Example 1, 4-(3-ethoxy-4-hydroxy-5-nitrophenyl)-5,6-diphenyl-3,4-dihydropyridin-2(1H)-one] | < 100 | > 50 | ~1100 | 
CCOc1cc(C2CC(=O)NC(c3cccnc3)=C2c2ccsc2)cc([N+](=O)[O-])c1O (stereo not shown) [Example 2, 4-(3-ethoxy-4-hydroxy-5-nitrophenyl)-6-(pyridin-3-yl)-5-(thiophen-3-yl)-3,4-dihydropyridin-2(1H)-one] | < 100 | > 50 |  | 
CCOc1cc(C2CC(=O)NC(c3cnn(C)c3)=C2c2ccsc2)cc([N+](=O)[O-])c1O (stereo not shown) [Example 4, 4-(3-ethoxy-4-hydroxy-5-nitrophenyl)-6-(1-methyl-1H-pyrazol-4-yl)-5-(thiophen-3-yl)-3,4-dihydropyridin-2(1H)-one] | < 100 | > 50 |  | 
O=C1CC(c2ccc(C(=O)O)c(O)c2)C(c2ccsc2)=C(c2ccccc2)N1 (stereo not shown) [Example 7, 2-hydroxy-4-(2-oxo-6-phenyl-5-(thiophen-3-yl)-1,2,3,4-tetrahydropyridin-4-yl)benzoic acid] | < 100 |  |  | 
Cn1cc(C2=C(c3ccsc3)C(c3ccc(C(=O)O)c(O)c3)CC(=O)N2)cn1 (stereo not shown) [Example 9, 2-hydroxy-4-(6-(1-methyl-1H-pyrazol-4-yl)-2-oxo-5-(thiophen-3-yl)-1,2,3,4-tetrahydropyridin-4-yl)benzoic acid] | < 100 |  |  | 
O=C1CC(c2cc(OCCO)c(O)c([N+](=O)[O-])c2)C(c2ccccc2)=C(c2ccccc2)N1 (stereo not shown) [Example 14, 4-(4-hydroxy-3-(2-hydroxyethoxy)-5-nitrophenyl)-5,6-diphenyl-3,4-dihydropyridin-2(1H)-one] | < 100 |  |  | > 50
CCOc1cc(C2CC(=O)N(C)C(c3ccccc3)=C2c2ccccc2)cc([N+](=O)[O-])c1O (stereo not shown) [Example 16, 4-(3-ethoxy-4-hydroxy-5-nitrophenyl)-1-methyl-5,6-diphenyl-3,4-dihydropyridin-2(1H)-one] |  |  |  | > 50
Cn1cc(C2=C(c3cccs3)C(c3cc(O)c(C(=O)O)c(F)c3)CC(=O)N2)cn1 (stereo not shown) [Example 17, 2-fluoro-6-hydroxy-4-(6-(1-methyl-1H-pyrazol-4-yl)-2-oxo-5-(thiophen-2-yl)-1,2,3,4-tetrahydropyridin-4-yl)benzoic acid] | < 100 |  |  | 
